# Laboratory results reported in US8338475B2, “Anti-proliferative pharmaceutical composition” (BioCis Pharma Oy, priority 2003, dated 2012).
# “And” between values parts separate entries of the source, which are not always exact repeats. Equal entries are not always repeated.
# How the values were obtained:
# [1] = system: human polymorphonuclear neutrophils; details: extracellular pH range 6.1 to 7.0; patent application US2006035973; cited from earlier work
# [2] = system: Ki67 (proliferating cells) in A2058 tumours; assay: Immunohistochemistry of tumours, Ki67 staining; assay type: in vivo, SCID/SCID mice; details: tumours collected after 16 days; 30 mM cis-UCA, 1 μM CPT intratumoural
# Excerpt: (§1) After 16 days from the first injection, all the animals were sacrificed with CO2, and the tumours were collected and fixed in formalin for further studies. In groups A, C, and D, one mouse was sacrificed before the end of the experiment because of poor development of the tumour (no measurable tumour at day 0). One animal in group B was sacrificed prematurely after it had severly scratched the tumour. Data from these animals were not included in the calculation of the tumour size results. All the removed animals were female mice. Immunohistochemical data was obtained also from the removed mice except from group B. The experiments were conducted under a protocol approved by the local ethics committee.
# Paraffin sections of the tumours were stained with haematoxylin/eosin following standard procedures for an overall picture. Ki67 was stained to detect the amount of proliferating cells. The staining procedure for the Ki67 primary antibody (Dako, Klostrup, Denmark) at 1:50 dilution and secondary antibody (StreptABComplex/HRP Duet Mouse/Rabbit, Dako) at 1:100 dilution followed the instructions provided by the manufacturer. Two sections from each tumour was examined.
# [3] = system: A2058 human cutaneous melanoma tumours; assay: Tumour growth in SCID/SCID mice in vivo; details: 16-day treatment, intratumoural 30 mM cis-UCA, 1 μM CPT, pH 6.5
# Description: All injection solutions were adjusted to pH 6.5. The data points have been normalised to unity tumour size at day 0. Data from five mice in each group is included (mean, SD).
# The A2058 human cutaneous melanoma cells were cultured under normal cell culture conditions prior to injection into mice. Two million A2058 cells were injected s.c. into the neck of SCID/SCID mice (Charles River Laboratories, Germany). Tumours were allowed to develop for two weeks to the size of a small pearl before the treatments. The mice were divided into four groups of six animals, each containing three males and three females. Each tumour was first injected 50 μl of one of the test solutions (A: PBS; B: 30 mM cis-UCA; C: 1 μM CPT; D: 30 mM cis-UCA+1 μM CPT) three times a week (Mon-Wed-Fri). After day 7 from the beginning of injections, the injection volume was increased to 150 μl injected into three different sides of the tumour. Tumour length and width were measured with a caliper three times a week before each injection. Tumour planar area was calculated as length×width. The tumour growth inhibition efficiency I of the treatments was calculated according to Equation 1:
# [formula] where Sr represents the normalised relative size of the tumour in the control group (A) or any of the treatment groups (T), and d0 to d16 are the (eight) measuring time points during the 16-day treatment period.
# as §1
# [4] = system: HeLa (epithelial adenocarcinoma of cervix); assay: Proliferation assay (CellTiter 96), HeLa cells; assay type: cell-based, human; details: pH 6.5, 44 h, cis-UCA 10 mM, CPT 2 μM, 15,000 cells per 100 μl
# Excerpt: Transformed tumour cell lines WM 266-4 and A2058 (cutaneous melanoma), HT-1080 (epithelial fibrosarcoma), HeLa (epithelial adenocarcinoma of cervix), HK293 (kidney epithelial cells) and non-transformed cell line HSF (skin fibroblast from a healthy volunteer donor) of human origin have been described earlier (Li et al. 2003). The K562 (chronic myelogenous leukemia) cells were purchased from American Type Culture Collection.
# The cells were maintained in logarithmic growth phase in IMDM medium (Invitrogen, Paisley, UK) supplemented with 10% fetal calf serum and antibiotics in a humidified incubator at +37° C., 5% CO2. The adherent cells lines were harvested for experiments with 0.25% trypsin-EDTA in PBS for 5 min and then resuspended and washed in medium. After counting of viable cells, 15,000 to 75,000 cells were transferred into flat-bottom 96-well cell culture plates in a volume of 100 or 150 μl.
# The proliferation activity of cultured cell lines was quantified in flat-bottom 96-well plates with a modified colorimetric assay based on a tetrazolium derivative (CellTiter 96 Aqueous One Solution Cell Proliferation Assay, Promega). The cells were cultured in the presence of camptothecin and/or cis-UCA for 20 to 92 h, then the proliferation reagent was added for 2 h, and the absorbance at 490 nm was measured in a plate reader. […]
compound,measurement,setting,value
"O=C(O)/C=C\c1c[nH]cn1 [cis-UCA, cis-urocanic acid]",effect on the intracellular pH of neutrophils,[1],affected the intracellular pH
same,Ki67+ (number of positive tumours/total analysed),[2],none of the analysed five tumours and 0/5
same,"Growth suppression, female",[3]; female mice,72.0%
same,"Growth suppression, male",[3]; male mice,55.9%
same,Inhibition of proliferation (mean percentage inhibition ± SD compared with untreated control),[4],50 ± 1.7%
